Reference: US8741897B2, “Glucocorticoid mimetics, methods of making them, pharmaceutical compositions and uses thereof” (Boehringer Ingelheim Pharmaceuticals Inc., priority 2003, dated 2014)

Columns and labels:
[1] = test system: Human osteosarcoma MG-63 cells; experiment: Inhibition of osteocalcin production from osteoblast cell line MG-63; format: cell-based; conditions: Vitamin D 10 nM, 48 hours
Experimental: 7. Inhibition of Osteocalcin Production from Osteoblast Cell Line MG-63
The next day, wells are replaced with fresh media. Cells are treated with Vitamin D (Sigma, Cat. No. D1530) to a final concentration of 10 nM, and with the test compounds in concentrations of 10^−6 M to 10^−9 M, in a total volume of 200 μL per well. Samples are done in duplicates. […] Positive control wells receive Vitamin D only, without compounds, and represent maximum (100%) amount of osteocalcin production. Plates are incubated at 37° C. incubator for 48 hours and supernatants are harvested at the end of incubation. Amounts of osteocalcin in the supernatants are determined by the Glype osteocalcin ELISA kit (Zymed, Cat. No. 99-0054) according to manufacture's protocol. Inhibition of osteocalcin by test compounds is expressed in percentage relative to positive controls. IC50 values of the test compounds are derived by non-lineal curve fitting.

[2] = biological target: T1, human glucocorticoid receptor (GR) complex (Homo sapiens, UniProt P04150); experiment: Glucocorticoid receptor competitive binding assay (fluorescence polarization, TAMRA-labeled dexamethasone probe); conditions: compounds of Formula (IA)
T1 construct: made in house; host or cells: insect expression system (baculovirus lysate)
T1 sequence (P04150 1-777): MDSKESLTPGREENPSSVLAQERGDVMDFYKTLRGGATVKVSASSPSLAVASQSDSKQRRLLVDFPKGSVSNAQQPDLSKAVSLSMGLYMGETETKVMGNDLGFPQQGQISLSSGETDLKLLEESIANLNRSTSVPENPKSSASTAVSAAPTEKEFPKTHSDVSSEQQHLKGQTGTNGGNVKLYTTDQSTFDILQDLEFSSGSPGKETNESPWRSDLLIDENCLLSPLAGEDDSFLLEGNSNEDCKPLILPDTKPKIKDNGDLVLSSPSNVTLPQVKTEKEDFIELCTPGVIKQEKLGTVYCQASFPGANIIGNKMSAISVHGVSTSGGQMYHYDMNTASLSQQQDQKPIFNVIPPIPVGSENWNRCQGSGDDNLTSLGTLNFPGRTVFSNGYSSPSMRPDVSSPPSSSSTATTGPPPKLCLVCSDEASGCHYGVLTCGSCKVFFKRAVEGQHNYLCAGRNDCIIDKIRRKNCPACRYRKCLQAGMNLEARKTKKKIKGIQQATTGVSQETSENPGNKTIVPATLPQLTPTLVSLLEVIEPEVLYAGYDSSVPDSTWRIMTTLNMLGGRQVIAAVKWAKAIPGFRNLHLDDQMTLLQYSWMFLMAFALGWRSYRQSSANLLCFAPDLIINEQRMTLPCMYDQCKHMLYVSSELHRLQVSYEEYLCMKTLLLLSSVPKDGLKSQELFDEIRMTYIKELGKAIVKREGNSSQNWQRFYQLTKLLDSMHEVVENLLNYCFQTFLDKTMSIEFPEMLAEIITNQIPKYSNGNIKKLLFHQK
How it was run: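 Fluorescence-polarization competition against 15 nM TAMRA-dexamethasone (stock added to the mix) for human GR complex from baculovirus lysate diluted 1:170. Buffer: 10 mM TES, 50 mM KCl, 20 mM Na2MoO4, 1.5 mM EDTA, 0.04% CHAPS, 10% glycerol, 1 mM DTT, pH 7.4. IC50 from 4-parameter logistic fit.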

[3] = test system: glucocorticoid receptor function; experiment: one or more of the above assays (GR binding and glucocorticoid receptor cell assays: aromatase, IL-6, TAT, MMTV-Luc, IL-8, ICAM-Luc); format: cell-based; conditions: assay not specified per compound

Structure (SMILES) | inhibit the vitamin D stimulated production of osteocalcin [1] | activity in the GR binding assay [2] | activity as agonists of the glucocorticoid receptor function in one or more of the above assays [3]
Cc1ccc(F)cc1C(C)(C)CC(O)(Cc1cc2cc(N3CCOCC3)ncc2[nH]1)C(F)(F)F (stereo not drawn) [1,1,1-Trifluoro-4-(5-fluoro-2-methylphenyl)-4-methyl-2-(5-morpholin-4-yl-1H-pyrrolo[2,3-c]pyridin-2-ylmethyl)pentan-2-ol] | inhibit | – | –
Cc1ccc(F)cc1C(C)(C)CC(O)(Cc1cc2cc(N3CCCCC3)ncc2[nH]1)C(F)(F)F (stereo not drawn) [1,1,1-Trifluoro-4-(5-fluoro-2-methylphenyl)-4-methyl-2-(5-piperidin-1-yl-1H-pyrrolo[2,3-c]pyridin-2-ylmethyl)pentan-2-ol] | inhibit | – | –
COc1ccc(F)cc1C(C)(C)CC(O)(Cc1cc2cnccc2[nH]1)C(F)F (stereo not drawn) [1,1-Difluoro-4-(5-fluoro-2-methoxyphenyl)-4-methyl-2-(1H-pyrrolo[3,2-c]pyridin-2-ylmethyl)pentan-2-ol] | – | potent activity | potent agonists
Cc1cc(C)c(O)c(C(C)(C)CC(O)(Cc2[nH]c3ccccc3c2C#N)C(F)(F)F)c1 (stereo not drawn) [2-[2-Hydroxy-4-(2-hydroxy-3,5-dimethylphenyl)-4-methyl-2-trifluoromethylpentyl]-1H-indole-3-carbonitrile] | – | potent activity | potent agonists
CC(C)(CC(O)(Cc1cc2cc(C(F)(F)F)ccc2[nH]1)C(F)(F)F)c1cc(F)ccc1O (stereo not drawn) [4-Fluoro-2-[4,4,4-trifluoro-3-hydroxy-1,1-dimethyl-3-(5-trifluoromethyl-1H-indol-2-ylmethyl)butyl]phenol] | – | potent activity | potent agonists
COc1ccc(C(C)(C)C)cc1C(C)(C)CC(O)(Cc1[nH]c2ccccc2c1C#N)C(F)(F)F (stereo not drawn) [2-[4-(5-tert-Butyl-2-methoxyphenyl)-2-hydroxy-4-methyl-2-trifluoromethylpentyl]-1H-indole-3-carbonitrile] | – | potent activity | potent agonists
Cc1cc(CC(O)(CC(C)(C)c2cccc3c2OCC3)C(F)(F)F)cc(C)n1 (stereo not drawn) [4-(2,3-Dihydrobenzofuran-7-yl)-2-(2,6-dimethylpyridin-4-ylmethyl)-1,1,1-trifluoro-4-methylpentan-2-ol] | – | potent activity | potent agonists
Cc1ccc(F)cc1C(C)(C)CC(O)(Cc1cc2cc(Cl)ncc2[nH]1)C(F)(F)F (stereo not drawn) [2-(5-Chloro-1H-pyrrolo[2,3-c]pyridin-2-ylmethyl)-1,1,1-trifluoro-4-(5-fluoro-2-methylphenyl)-4-methylpentan-2-ol] | – | potent activity | potent agonists
COc1ccc(F)cc1C(C)(C)CC(O)(Cc1cc2c(Cl)nc(N)nc2[nH]1)C(F)(F)F (stereo not drawn) [2-(2-Amino-4-chloro-7H-pyrrolo[2,3-d]pyrimidin-6-ylmethyl)-1,1,1-trifluoro-4-(5-fluoro-2-methoxyphenyl)-4-methylpentan-2-ol] | – | potent activity | potent agonists
CC(C)(CC(O)(Cc1cc2ccccc2[nH]1)C(F)(F)F)c1ccccc1F (stereo not drawn) [1,1,1-Trifluoro-4-(2-fluorophenyl)-2-(1H-indol-2-ylmethyl)-4-methylpentan-2-ol] | – | potent activity | potent agonists
COc1cc2cc(CC(O)(CC(C)(C)c3cc(F)ccc3C)C(F)(F)F)[nH]c2cn1 (stereo not drawn) [1,1,1-Trifluoro-4-(5-fluoro-2-methylphenyl)-2-(5-methoxy-1H-pyrrolo[2,3-c]pyridin-2-ylmethyl)-4-methylpentan-2-ol] | – | potent activity | potent agonists
COc1ccc(F)cc1C(C)(C)CC(O)(Cc1cc2cnc(C)cc2[nH]1)C(F)(F)F (stereo not drawn) [1,1,1-Trifluoro-4-(5-fluoro-2-methoxyphenyl)-4-methyl-2-(6-methyl-1H-pyrrolo[3,2-c]pyridin-2-ylmethyl)pentan-2-ol] | – | potent activity | potent agonists
COc1ccc2[nH]c(CC(O)(CC(C)(C)c3cc(F)ccc3C)C(F)(F)F)cc2n1 (stereo not drawn) [1,1,1-Trifluoro-4-(5-fluoro-2-methylphenyl)-2-(5-methoxy-1H-pyrrolo[3,2-b]pyridin-2-ylmethyl)-4-methylpentan-2-ol] | – | potent activity | potent agonists
CC(C)(CC(O)(Cc1cc(Cl)nc(Cl)c1C#N)C(F)(F)F)c1cc(F)ccc1O (stereo not drawn) [2,6-Dichloro-4-[4-(5-fluoro-2-hydroxyphenyl)-2-hydroxy-4-methyl-2-trifluoromethylpentyl]nicotinonitrile] | – | potent activity | potent agonists
Cc1cc(CC(O)(CC(C)(C)c2ccc(F)cc2O)C(F)(F)F)cc(C)n1 (stereo not drawn) [2-[3-(2,6-Dimethylpyridin-4-ylmethyl)-4,4,4-trifluoro-3-hydroxy-1,1-dimethylbutyl]-5-fluorophenol] | – | potent activity | potent agonists
CC(C)(CC(O)(Cc1cc2cc(C(F)(F)F)ncc2[nH]1)C(F)(F)F)c1cc(Cl)cc2c1OCC2 (stereo not drawn) [4-(5-Chloro-2,3-dihydrobenzofuran-7-yl)-1,1,1-trifluoro-4-methyl-2-(5-trifluoromethyl-1H-pyrrolo[2,3-c]pyridin-2-ylmethyl)pentan-2-ol] | – | potent activity | potent agonists
COc1ccc(F)cc1C(C)(C)CC(O)(Cc1cc2cc(C#N)ncc2[nH]1)C(F)(F)F (stereo not drawn) [2-[4-(5-Fluoro-2-methoxyphenyl)-2-hydroxy-4-methyl-2-trifluoromethylpentyl]-1H-pyrrolo[2,3-c]pyridine-5-carbonitrile] | – | potent activity | potent agonists
CCC(C)(CC(O)(Cc1ccnc2ccccc12)C(F)(F)F)c1ccccc1 (stereo not drawn) [1,1,1-Trifluoro-4-methyl-4-phenyl-2-quinolin-4-ylmethylhexan-2-ol] | – | potent activity | potent agonists
Cc1cc(CC(O)(CC(C)(C)c2cccc(F)c2)C(F)(F)F)cc(C)n1 (stereo not drawn) [2-(2,6-Dimethylpyridin-4-ylmethyl)-1,1,1-trifluoro-4-(3-fluorophenyl)-4-methylpentan-2-ol] | – | potent activity | potent agonists
Cc1ccc(F)cc1C(C)(C)CC(O)(Cc1cc2ncncc2[nH]1)C(F)(F)F (stereo not drawn) [1,1,1-Trifluoro-4-(5-fluoro-2-methylphenyl)-4-methyl-2-(5H-pyrrolo[3,2-d]pyrimidin-6-ylmethyl)pentan-2-ol] | – | potent activity | potent agonists
CC(C)(CC(O)(Cc1cc2cc(C#N)ccc2[nH]1)C(F)(F)F)c1cccc(C2OCCO2)c1 (stereo not drawn) [2-[4-(3-[1,3]Dioxolan-2-ylphenyl)-2-hydroxy-4-methyl-2-trifluoromethylpentyl]-1H-indole-5-carbonitrile] | – | potent activity | potent agonists
Cc1ccc(C(C)(C)CC(O)(Cc2ccnc3ccccc23)C(F)(F)F)cc1F (stereo not drawn) [1,1,1-Trifluoro-4-(3-fluoro-4-methylphenyl)-4-methyl-2-quinolin-4-ylmethylpentan-2-ol] | – | potent activity | potent agonists
